From patent US20100125059A1, “1-BIARYLAZETIDINONE DERIVATIVE” (Teijin Pharma Limited, priority 2007, published 2010)
Where two headings read alike, the source gives them in different places.

System: hamsters fed a high cholesterol diet
Test: Measurement of lipid lowering effect in hamsters fed a high cholesterol diet
Format: in vivo, Male Golden Syrian hamsters
Details: Mesocricetus auratus, po, 168 h, gavage once daily, 7 days
Protocol: Male Golden Syrian hamsters are divided into groups each consisting of 6 animals and fed a controlled high cholesterol diet (CE-2 containing 0.5% cholesterol; CLEA Japan, Inc.) for 28 days at most. From the start of feeding of the high cholesterol diet, the test compounds are administered by gavage once daily. For the administration, 0.2 mL of corn oil alone per 100 g (control group) or a solution (or suspension) of the test compound in corn oil at a dose of 0.01 to 10 mg/kg was given. At the same time, a group fed with a normal diet during the same study period is handled as a normal group. 4 hours after the last administration, whole blood is collected from the abdominal aorta under light anesthesia with ether and serum is separated from the blood. Further, livers are harvested, wet liver weights are measured, and part (about 0.5 g) of the harvested livers are extracted and weighed. 2-propanol in an amount 4 times the weight of the extracted livers are added, the resulted mixtures are homogenized, and the centrifuged supernatant are recovered and used as liver-derived samples.
Serum and liver TC concentrations are determined by an enzyme method using L-type Wako CHO•H (Wako Pure Chemical Industries Ltd.) or Cholestest CHO (Daiichi Pure Chemicals Co., Ltd.). Serum TG concentrations are determined by an enzyme method using L-type Wako TG•H (Wako Pure Chemical Industries Ltd.) or Autosera S TG-N (Daiichi Pure Chemicals Co., Ltd.) and a free glycerine elimination method. LDL-C concentrations are determined by a direct method using L-type Wako LDL-C•M (Wako Pure Chemical Industries Ltd.) or Cholestest LDL (Daiichi Pure Chemicals Co., Ltd.). Human serum was commonly used as a sample for the calibration curve for determinations of serum and liver TC concentrations, serum TG concentration, and serum LDL-C concentration. The effect of the test compound is shown by a suppression rate (%) of an increase in serum TC concentration due to feeding of the high cholesterol diet, a serum TG lowering rate (%), a suppression rate (%) of an increase in serum LDL-C concentration due to feeding of the high cholesterol diet, and a suppression rate (%) of an increase in liver TC concentration due to feeding of the high cholesterol diet calculated in accordance with the following equations.
In the Equation 2, A is the control group, B is the test compound group, and C is the normal group.
In the Equation 3, A is the control group, B is the test compound group, and C is the normal group.
In the Equation 4, A is the control group, B is the test compound group, and C is the normal group.
In the Equation 5, A is the control group, and B is the test compound group.
The following results were obtained from the study by this method on the effects of lowering serum TC, LDL-C, and TG, and liver TC in the hamsters fed with a high cholesterol diet which were given the test compounds for 7 days.
The compounds in which pyridyl of compound of example 51 and 55 was exchanged for phenyl, were used as comparative compound 1 and 2, respectively. In the same method as Example 112, the suppression rate (%) of an increase in serum TC concentration of comparative compound 1 and 2 were calculated.

[1] = read-out: liver TC lowering effect (suppression rate of an increase in liver TC concentration)
[2] = read-out: serum TC lowering effect (suppression rate of an increase in serum TC concentration)
[3] = read-out: serum TG lowering effect (serum TG lowering rate)
[4] = read-out: serum LDL-C lowering effect (suppression rate of an increase in serum LDL-C concentration)

O=C1[C@H](SC[C@H](O)c2ccc(F)cc2)[C@@H](c2ccc(O)cc2O)N1c1ccc(-c2cccnc2)cc1 [Example 2, (3R,4R)-3-[(2R)-2-(4-fluorophenyl)-2-hydroxyethylthio]-4-(2,4-dihydroxyphenyl)-1-[4-(pyridin-3-yl)phenyl]azetidin-2-one]
inhibition in vivo at 0.01 mg/kg [1]: ≥ 30%
inhibition in vivo at 0.01 mg/kg [2]: ≥ 30%

O=C1[C@H](SC[C@H](O)c2ccc(F)cc2)[C@@H](c2ccc(O)cc2)N1c1ccc(-c2ccc(C(F)(F)F)cn2)cc1 [Example 3, (3R,4R)-3-[(2R)-2-(4-fluorophenyl)-2-hydroxyethylthio]-4-(4-hydroxyphenyl)-1-[4-(5-trifluoromethylpyridin-2-yl)phenyl]azetidin-2-one]
inhibition in vivo at 0.1 mg/kg [3]: ≥ 20%

O=C1[C@H](SC[C@H](O)c2ccc(F)cc2)[C@@H](c2ccc(O)cc2)N1c1ccc(-c2cncnc2)cc1 [Example 10, (3R,4R)-3-[(2R)-2-(4-fluorophenyl)-2-hydroxyethylthio]-4-(4-hydroxyphenyl)-1-[4-(pyrimidin-5-yl)phenyl]azetidin-2-one]
inhibition in vivo at 0.1 mg/kg [2]: ≥ 50%
inhibition in vivo at 0.1 mg/kg [3]: ≥ 20%

N#Cc1cncc(-c2ccc(N3C(=O)[C@H](SC[C@H](O)c4ccc(F)cc4)[C@H]3c3ccc(O)cc3)cc2)c1 [Example 18, 5-(4-{(3R,4R)-3-[(2R)-2-(4-fluorophenyl)-2-hydroxyethylthio]-4-(4-hydroxyphenyl)-2-oxoazetidinyl}phenyl)pyridine-3-carbonitrile]
inhibition in vivo at 0.01 mg/kg [2]: ≥ 30%
inhibition in vivo at 0.1 mg/kg [4]: ≥ 50%
inhibition in vivo at 0.1 mg/kg [3]: ≥ 20%

O=C(CS[C@H]1C(=O)N(c2ccc(-c3cccnc3)cc2)[C@@H]1c1ccc(O)cc1)c1ccc(F)cc1 [Example 27, (3R,4R)-3-[2-(4-fluorophenyl)-2-oxoethylthio]-4-(4-hydroxyphenyl)-1-[4-(pyridin-3-yl)phenyl]azetidin-2-one]
inhibition in vivo at 0.1 mg/kg [4]: ≥ 50%
inhibition in vivo at 0.1 mg/kg [2]: ≥ 50%

O=C1[C@H](SC[C@H](O)c2ccc(F)cc2F)[C@@H](c2ccc(O)cc2)N1c1ccc(-c2cccnc2)cc1 [Example 30, (3R,4R)-3-[(2R)-2-(2,4-difluorophenyl)-2-hydroxyethylthio]-4-(4-hydroxyphenyl)-1-[4-(pyridin-3-yl)phenyl]azetidin-2-one]
inhibition in vivo at 0.1 mg/kg [1]: ≥ 50%
inhibition in vivo at 0.1 mg/kg [4]: ≥ 50%
inhibition in vivo at 0.1 mg/kg [2]: ≥ 50%

O=C1[C@H](SC[C@H](O)c2ccc3c(c2)OCO3)[C@@H](c2ccc(O)cc2)N1c1ccc(-c2cccnc2)cc1 [Example 33, (3R,4R)-3-[(2R)-2-(2H-benzo[3,4-d]1,3-dioxolen-5-yl)-2-hydroxyethylthio]-4-(4-hydroxyphenyl)-1-[4-(pyridin-3-yl)phenyl]azetidin-2-one]
inhibition in vivo at 0.1 mg/kg [4]: ≥ 50%
inhibition in vivo at 0.1 mg/kg [2]: ≥ 50%

O=C1[C@H](SC[C@H](O)c2ccc(F)cc2)[C@@H](c2ccc(O)c([N+](=O)[O-])c2)N1c1ccc(-c2cccnc2)cc1 [Example 42, (3R,4R)-3-[(2R)-2-(4-fluorophenyl)-2-hydroxyethylthio]-4-(4-hydroxy-3-nitrophenyl)-1-[4-(pyridin-3-yl)phenyl]azetidin-2-one]
inhibition in vivo at 0.1 mg/kg [4]: ≥ 50%

O=C1[C@H](SC[C@H](O)c2ccc(Cl)s2)[C@@H](c2ccc(O)cc2)N1c1ccc(-c2cccnc2)cc1 [Example 46, (3R,4R)-3-[(2S)-2-(5-chlorothiophen-2-yl)-2-hydroxyethylthio]-4-(4-hydroxyphenyl)-1-[4-(pyridin-3-yl)phenyl]azetidin-2-one]
inhibition in vivo at 0.1 mg/kg [3]: ≥ 20%

CCNC(=O)c1cncc(-c2ccc(N3C(=O)[C@H](SC[C@H](O)c4ccc(F)cc4)[C@H]3c3ccc(O)cc3)cc2)c1 [Example 49, N-ethyl-5-(4-{(3R,4R)-3-[(2R)-2-(4-fluorophenyl)-2-hydroxyethylthio]-4-(4-hydroxyphenyl)-2-oxoazetidinyl}phenyl)pyridine-3-carboxamide]
inhibition in vivo at 0.1 mg/kg [4]: ≥ 50%
inhibition in vivo at 0.1 mg/kg [2]: ≥ 50%
inhibition in vivo at 0.1 mg/kg [3]: ≥ 20%

O=C1[C@H](SC[C@H](O)c2ccc(F)cc2)[C@@H](c2ccc(O)cc2)N1c1ccc(-c2cnccn2)cc1 [Example 53, (3R,4R)-3-[(2R)-2-(4-fluorophenyl)-2-hydroxyethylthio]-4-(4-hydroxyphenyl)-1-[4-(pyrazin-2-yl)phenyl]azetidin-2-one]
inhibition in vivo at 0.1 mg/kg [4]: ≥ 50%

N#Cc1ccc(-c2ccc(N3C(=O)[C@H](SC[C@H](O)c4ccc(Cl)cc4)[C@H]3c3ccc(O)cc3)cc2)cn1 [Example 60, 5-(4-{(3R,4R)-3-[(2R)-2-(4-chlorophenyl)-2-hydroxyethylthio]-4-(4-hydroxyphenyl)-2-oxoazetidinyl}phenyl)pyridine-2-carbonitrile]
inhibition in vivo at 0.1 mg/kg [4]: ≥ 50%
inhibition in vivo at 0.1 mg/kg [3]: ≥ 20%

O=C1[C@H](SC[C@H](O)c2ccc(Cl)cc2)[C@@H](c2ccc(O)cc2O)N1c1ccc(-c2cccnc2)cc1 [Example 62, (3R,4R)-3-[(2R)-2-(4-chlorophenyl)-2-hydroxyethylthio]-4-(2,4-dihydroxyphenyl)-1-[4-(pyridin-3-yl)phenyl]azetidin-2-one]
inhibition in vivo at 0.1 mg/kg [4]: ≥ 50%
inhibition in vivo at 0.1 mg/kg [2]: ≥ 50%

N#Cc1cncc(-c2ccc(N3C(=O)[C@H](SC[C@H](O)c4ccc(F)cc4)[C@H]3c3ccc(O)cc3O)cc2)c1 [Example 63, 5-(4-{(3R,4R)-3-[(2R)-2-(4-fluorophenyl)-2-hydroxyethylthio]-4-(2,4-dihydroxyphenyl)-2-oxoazetidinyl}phenyl)pyridine-3-carbonitrile]
inhibition in vivo at 0.01 mg/kg [1]: ≥ 30%
inhibition in vivo at 0.01 mg/kg [4]: ≥ 30%
inhibition in vivo at 0.01 mg/kg [2]: ≥ 30%
inhibition in vivo at 0.1 mg/kg [4]: ≥ 50%
inhibition in vivo at 0.1 mg/kg [2]: ≥ 50%

COc1ccncc1-c1ccc(N2C(=O)[C@H](SC[C@H](O)c3ccc(F)cc3)[C@H]2c2ccc(O)cc2O)cc1 [Example 64, (3R,4R)-3-[(2R)-2-(4-fluorophenyl)-2-hydroxyethylthio]-4-(2,4-dihydroxyphenyl)-1-[4-(4-methoxypyridin-3-yl)phenyl]azetidin-2-one]
inhibition in vivo at 0.1 mg/kg [4]: ≥ 50%
inhibition in vivo at 0.1 mg/kg [2]: ≥ 50%

N#Cc1cncc(-c2ccc(N3C(=O)[C@H](SC[C@H](O)c4ccc(Cl)cc4)[C@H]3c3ccc(O)cc3O)cc2)c1 [Example 65, 5-(4-{(3R,4R)-3-[(2R)-2-(4-chlorophenyl)-2-hydroxyethylthio]-4-(2,4-dihydroxyphenyl)-2-oxoazetidinyl}phenyl)pyridine-3-carbonitrile]
inhibition in vivo at 0.1 mg/kg [4]: ≥ 50%
inhibition in vivo at 0.1 mg/kg [2]: ≥ 50%

O=Cc1cc(-c2ccc(N3C(=O)[C@H](SC[C@H](O)c4ccc(F)cc4)[C@H]3c3ccc(O)cc3)cc2)cs1 [Example 67, 4-(4-{(3R,4R)-3-[(2R)-2-(4-fluorophenyl)-2-hydroxyethylthio]-4-(4-hydroxyphenyl)-2-oxoazetidinyl}phenyl)thiophene-2-carbaldehyde]
inhibition in vivo at 0.1 mg/kg [3]: ≥ 20%

Cc1cncc(-c2ccc(N3C(=O)[C@H](SC[C@H](O)c4ccc(F)cc4)[C@H]3c3ccc(O)cc3)cc2)c1 [Example 68, (3R,4R)-3-[(2R)-2-(4-fluorophenyl)-2-hydroxyethylthio]-4-(4-hydroxyphenyl)-1-[4-(5-methylpyridin-3-yl)phenyl]azetidin-2-one]
inhibition in vivo at 0.01 mg/kg [2]: ≥ 30%
inhibition in vivo at 0.1 mg/kg [4]: ≥ 50%

O=C1[C@H](SC[C@H](O)c2ccc(Cl)cc2)[C@@H](c2ccc(O)cc2)N1c1ccc(-c2cncnc2)cc1 [Example 69, (3R,4R)-3-[(2R)-2-(4-chlorophenyl)-2-hydroxyethylthio]-4-(4-hydroxyphenyl)-1-[4-(pyrimidin-5-yl)phenyl]azetidin-2-one]
inhibition in vivo at 0.01 mg/kg [4]: ≥ 30%
inhibition in vivo at 0.01 mg/kg [2]: ≥ 30%
